Entries after “also recorded” stand apart in the source; their conditions may differ.

In series [1] the test system is latent HIV-1 in blood CD4+ T cells from infected individuals on suppressive ART. In kind it is cell-based.
Series [2] concerns AKT/mTOR pathway in CD4+ T cells. Kind of series: Example 5: RNA and protein expression profiling with nanoString. Conditions: 1 μM. It counts as cell-based, human. As for the experimental part:
Quantitative RNA and protein expression data were generated using the nCounter Vantage 3D Solid Tumor Assay and the nCounter SPRINT profiler (NanoString Technologies), comprising 770 RNA and 30 protein targets including positive and negative controls. 1-3 million negatively selected primary CD4^+ T cells purified from HIV-positive donors on suppressive ART, as described above, were treated with 1 μM tideglusib or left untreated (DMSO control). […]. For RNA samples, an additional RNA purification step (Qiagen miRNeasy Mini Kit) was necessary to ensure an appropriate sample input for the nCounter assay. A total of at least 30 ng RNA was used for each sample. Otherwise, samples were processed according to the manufacturer's instructions. RNA and protein expression values were normalized and analyzed using the nSolver Analysis Software 4.0 and the add-on Advanced Analysis Software 2.0.115 (NanoString Technologies). Normalization genes for each sample were automatically selected by the software based on the geNorm algorithm (ref vandesompele). Biological replicates were then grouped according to treatment and the differential expression of each analyte-type (RNA or protein target) was determined in comparison to the untreated condition by considering inter-donor differences as confounding variables. Based on the differential expression of each gene, pre-defined gene sets by nanoString, representing different pathways included in this assay, were analyzed by calculating global significance scores for each gene set within each treatment, as follows: […]

Series [3] has the same test system. Kind of series: Example 5: phosphoproteomics (mass spectrometry) and GO enrichment analysis. It counts as cell-based, human. Conditions: 1 μM; 15 minutes. As for the experimental part:
Cells were lysed in a buffer containing 8M urea, 100 mM Tris pH 8.0, 150 mM NaCl, and protease inhibitors (Roche Complete tablet). Lysates were reduced with 4 mM TCEP for 30 minutes at room temperature and alkylated with 10 mM iodoacetamide for 30 minutes at room temperature in the dark. Samples were diluted 1:4 in 100 mM Tris pH 8.0 to reduce urea concentration to 2M and digested with trypsin (1:100 enzyme:substrate ratio) overnight at 37 degrees Celsius. Peptides were desalted with SepPak C 18 solid phase extraction (Waters) according the manufacturer's specifications and lyophilized to dryness. Phosphopeptides were purified using an immobilized metal affinity chromatography approach.
Samples were analyzed on a Thermo Scientific LTQ Orbitrap Elite MS system equipped with an Easy nLC-1000 HPLC and autosampler system that is capable of maintaining back pressures of up to 10,000 psi for high resolution chromatographic separations. The HPLC interfaces with the MS system via a nanoelectrospray source.
Samples were injected onto a C18 reverse phase capillary column (75 um inner diameter×25 cm length, packed with 1.9 um C18 particles). Peptides were then separated by an organic gradient from 5% to 30% ACN in 0.1% formic acid over 180 minutes at a flow rate of 300 nl/min. The MS continuously collected spectra in a data-dependent fashion over the entire gradient.
Raw mass spectrometry data were analyzed using the MaxQuant software package (version 1.3.0.5). Data were matched to the SwissProt human reference sequence database. MaxQuant was configured to generate and search against a reverse sequence database for false discovery rate calculations. […] For MS/MS matching, a mass tolerance of 0.5 Da was allowed and the top 6 peaks per 100 Da were analyzed. […]
The MaxQuant-analyzed data were subsequently analyzed using an in-house computational pipeline for statistical analysis of relative quantification with fixed and/or mixed effect models, implemented in the MSstats Bioconductor package (version 3.3.10). […]

The test system of series [4] is NF-κB (p65). Kind of series: Example 5: NF-κB p65 nuclear translocation, western blot of nuclear extracts. It counts as cell-based, human. Conditions: 1 μM tideglusib or anti-CD3/CD28 coated beads; CD4+ T cells of three HIV-negative participants. A general note: Immunoblotting shows a protein as a band on a membrane.
Protocol: Nuclear extracts were prepared from purified CD4^+ T cells using the NE-PER Nuclear and Cytoplasmic Extraction reagent supplemented with protease inhibitor cocktail, as specified by the manufacturers protocol (Thermoscientific, catalogue no. 78833). Protein concentration of extracts was determined by Biorad protein assay (Biorad, catalogue no. 5000001). Nuclear extracts were resolved by electrophoresis on a 10% SDS-polyacrylamide gel using 15 μg of protein per condition and then transferred to PVDF membrane. Membranes were immunoblotted with primary antibodies for p65 (Cell signal Tech., catalogue no. 8242) and TATA binding protein (Abcam, catalogue no. ab63766); primary antibodies were diluted at 1:1000. Detection of primary antibodies was achieved by incubation with HRP conjugated secondary antibody. Bands were visualized by chemiluminescent detection using Immobilon Forte Western HRP ECL substrate (Millipore, catalogue no. WBLUF0100) followed by exposure to hyperfilm ECL (GE/Amersham, catalogue no. 45001508).
For series [5], the system named is primary CD4+ T cells isolated from fresh human tonsils. Kind of series: CD69 transcripts in primary CD4+ T cells from fresh human tonsils. In kind it is cell-based. The settings on record: 2-day treatment.
Series [6] has as its system latent HIV in CD4+ T cells from HIV-1-infected individuals on suppressive ART. Kind of series: Example 1: reactivation of latent HIV, viral mRNA in culture supernatant by ddPCR. Conditions: 48 hours.

Take `O=c1sn(-c2cccc3ccccc23)c(=O)n1Cc1ccccc1` [Tideglusib, 4-benzyl-2-(naphthalen-1-yl)-1,2,4-thiadiazolidine-3,5-dione]: in series [1] (1 μM tideglusib vs 10 nM bryostatin-1), the “release of virus-associated HIV-1 mRNA relative to bryostatin-1, by median values” is listed as “twofold more”. Also, the “virus-associated HIV-1 mRNA, median value” in series [1] (1 μM, 48 hours, relative to untreated control) was 10.3 fold. In addition, the “activation of the AKT/mTOR pathway (phosphorylation of GSK-3β, AKT and TSC2)” value in series [2] (15 minutes post-treatment) was “non-significant activation”. In series [2] (1 hour), the “activating phosphorylation of p70S6K on T389” value was “significant phosphorylation values” and the “inhibiting phosphorylation of GSK-3β on S9” value is given as “significant phosphorylation values”. For the same compound, in series [2] (6 hours), the “inhibiting phosphorylation of TSC2 on T1426” value is “statistically-relevant phosphorylation” and the “phosphorylation of AKT on S473” value was “statistically-relevant phosphorylation”. In addition, the “overall transcriptome changes, pathways (700 transcripts)” value in series [2] (after 1 and 6 hours) is “activation of the mitogen-activated protein kinase (MAPK), PI3K, Ras, Wnt and TGFβ pathways and deactivation of the Hedgehog, Notch and Janus kinases (JAK) and signal transducer and activator of transcription proteins (STAT)-pathways”. For the same compound, in series [3], the “GO enrichment analysis of treated vs untreated phosphoproteomics results” value was “activation of TCR signaling (data not shown), together with overall spliceosome complex activity, transcription activation, mRNA processing and EGFR signaling”; the “phosphoproteomics: GSK-3β and TSC2” value was “confirmed inhibition of GSK-3β and TSC2”; the “phosphoproteomics: Rictor” value is “revealed phosphorylation of Rictor on T1295”. For the same compound, the “time of peak p65 nuclear translocation” value in series [4] worked out at 60 min. In addition, in series [5], the “expression of CD69 transcripts” value was “reduces expression of CD69 transcripts”. Also, in series [6] (1 μM, one donor), the “induction of viral mRNA in culture supernatant, highest single donor” value is given as “up to 60 fold”. Also, the “average increase in viral mRNA released into the culture supernatant compared to untreated control” value in series [6] (1 μM, vs DMSO-treated cells) was found to be 30 fold. Moreover, the “reactivation of latent HIV from CD4+ T cells upon ex vivo treatment” value in series [6] is “high level of reactivation; also recorded: even greater than that demonstrated with SB-216763”.
